Test results reported in patent US20120178646A1, “HIGH THROUGHPUT METHOD AND SYSTEM FOR IN VIVO SCREENING” (ZF SCREENS B.V., priority 2009, published 2012).

Test system: Mycobacterium marinum strain E11
Experiment: Granuloma formation in zebrafish larvae after intrayolk injection with Mycobacterium marinum (COPAS XL fluorescence profiling)
Type: in vivo
Details: zebrafish embryos injected intrayolk at 16- to 256-cell stage, refreshed daily, screened at 5 dpi, confirmed by stereo fluorescence microscopy

SMILES	presence of CherryFP-labeled granulomas in larvae (exposed from 2 dpi to 10 μM in 0.5% DMSO)	presence of CherryFP-labeled granulomas in larvae (exposed from 2 dpi to 2 mM in water)
O=S(=O)(NCCNC/C=C/c1ccc(Br)cc1)c1cccc2cnccc12 [H89]	did not contain granulomas	
CC[C@@H](CO)NCCN[C@@H](CC)CO [ethambutol]		did not contain granulomas
